Laboratory results from patent publication US8486991B2, “Enantiomerically pure phosphoindoles as HIV inhibitors” (Idenix Pharmaceuticals, Inc., priority 2006, dated 2013).
Where two headings read alike, the source gives them in different places. One block for each compound: values may come before it. *1 amine or outer side, *2 acyl side, *3 side chain or, on linkers, in order; H or OH if unused. Where a SMILES comes first, the peptide text is derived from it. Bridges are numbered along the chain shown (N, C = ends). Roman numbers before positions name the chains, in order. [ ]: non-standard residue; d: D form. Actinocin(9to1) = Cc1c2oc3c(C)ccc(C(=O)[*:1])c3nc-2c(C(=O)[*:2])c(N)c1=O; NMeV = CN[C@H](C(=O)O)C(C)C; Sar = CNCC(=O)O

What was measured:
HIV-2 ROD = HIV-2 ROD WT in H9 cell assay; assay type: cell-based; conditions: Human immunodeficiency virus 2, H9; Table 18; highest concentration assayed 1.25 μM; read-out: EC50 Values
Protocol: The susceptibility of HIV type 2 ROD in H9 cells to Compound I and Compound III was determined against zidovudine (AZT) as a control.

[1] = target: T1, human DNA polymerase alpha (Homo sapiens, UniProt P09884); experiment: Human cellular DNA polymerase alpha assay; assay type: biochemical
T1 sequence (P09884 1-1462): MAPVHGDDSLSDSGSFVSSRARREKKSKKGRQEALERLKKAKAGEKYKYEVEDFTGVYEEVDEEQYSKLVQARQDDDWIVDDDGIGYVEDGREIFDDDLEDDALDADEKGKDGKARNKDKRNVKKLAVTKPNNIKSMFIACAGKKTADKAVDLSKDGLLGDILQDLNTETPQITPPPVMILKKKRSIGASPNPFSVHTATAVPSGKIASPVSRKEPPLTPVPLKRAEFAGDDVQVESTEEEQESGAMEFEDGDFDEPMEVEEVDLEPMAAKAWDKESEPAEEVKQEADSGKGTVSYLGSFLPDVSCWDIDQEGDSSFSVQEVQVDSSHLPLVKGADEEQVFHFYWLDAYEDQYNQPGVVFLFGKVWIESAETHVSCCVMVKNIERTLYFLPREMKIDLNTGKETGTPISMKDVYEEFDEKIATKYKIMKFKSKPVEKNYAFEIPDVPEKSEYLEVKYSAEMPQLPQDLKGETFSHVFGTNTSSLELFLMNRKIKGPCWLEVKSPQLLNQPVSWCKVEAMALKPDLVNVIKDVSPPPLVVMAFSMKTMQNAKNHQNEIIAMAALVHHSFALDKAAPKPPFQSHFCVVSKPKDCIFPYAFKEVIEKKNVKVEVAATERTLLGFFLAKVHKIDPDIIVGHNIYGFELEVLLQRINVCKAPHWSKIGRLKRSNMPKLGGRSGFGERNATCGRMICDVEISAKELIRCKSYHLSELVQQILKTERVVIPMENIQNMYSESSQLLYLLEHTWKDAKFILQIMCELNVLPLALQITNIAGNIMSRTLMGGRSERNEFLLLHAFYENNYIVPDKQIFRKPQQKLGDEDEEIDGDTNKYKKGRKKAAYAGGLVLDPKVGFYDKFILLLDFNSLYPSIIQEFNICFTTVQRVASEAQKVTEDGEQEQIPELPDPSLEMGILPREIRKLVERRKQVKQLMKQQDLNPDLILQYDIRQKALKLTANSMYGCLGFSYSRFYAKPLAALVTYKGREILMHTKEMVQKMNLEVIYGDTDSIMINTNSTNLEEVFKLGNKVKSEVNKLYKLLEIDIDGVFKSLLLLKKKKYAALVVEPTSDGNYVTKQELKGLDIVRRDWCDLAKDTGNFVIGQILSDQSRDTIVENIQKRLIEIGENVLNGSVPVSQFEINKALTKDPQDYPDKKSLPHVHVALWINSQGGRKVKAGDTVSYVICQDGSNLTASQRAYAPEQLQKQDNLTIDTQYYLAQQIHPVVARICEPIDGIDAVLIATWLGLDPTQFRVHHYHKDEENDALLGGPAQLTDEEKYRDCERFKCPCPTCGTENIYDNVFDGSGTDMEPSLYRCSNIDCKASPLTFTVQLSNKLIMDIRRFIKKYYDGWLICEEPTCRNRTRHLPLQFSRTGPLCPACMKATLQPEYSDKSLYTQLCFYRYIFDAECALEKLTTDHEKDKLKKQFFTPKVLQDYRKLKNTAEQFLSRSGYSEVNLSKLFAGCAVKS
From the text: (§1) HIV RT, like other viral polymerase, shares limited structural homology with the cellular DNA polymerases responsible for normal nuclear and mitochondrial DNA synthesis and repair. This raises the formal possibility that inhibitors of HIV RT might inhibit cellular polymerases, resulting in cellular toxicity. In particular, inhibition of polymerase gamma has the potential to result in mitochondrial toxicity. The ability of Compound I and Compound III to inhibit cellular DNA polymerases was assessed using standard in vitro assays (Table 5).

[2] = target: human DNA polymerase beta (Homo sapiens, UniProt P06746); experiment: Human cellular DNA polymerase beta assay; assay type: biochemical
From the text: as §1

[3] = target: T2, human DNA polymerase gamma (Homo sapiens, UniProt P54098); experiment: Human cellular DNA polymerase gamma assay; assay type: biochemical
T2 sequence (P54098 1-1239): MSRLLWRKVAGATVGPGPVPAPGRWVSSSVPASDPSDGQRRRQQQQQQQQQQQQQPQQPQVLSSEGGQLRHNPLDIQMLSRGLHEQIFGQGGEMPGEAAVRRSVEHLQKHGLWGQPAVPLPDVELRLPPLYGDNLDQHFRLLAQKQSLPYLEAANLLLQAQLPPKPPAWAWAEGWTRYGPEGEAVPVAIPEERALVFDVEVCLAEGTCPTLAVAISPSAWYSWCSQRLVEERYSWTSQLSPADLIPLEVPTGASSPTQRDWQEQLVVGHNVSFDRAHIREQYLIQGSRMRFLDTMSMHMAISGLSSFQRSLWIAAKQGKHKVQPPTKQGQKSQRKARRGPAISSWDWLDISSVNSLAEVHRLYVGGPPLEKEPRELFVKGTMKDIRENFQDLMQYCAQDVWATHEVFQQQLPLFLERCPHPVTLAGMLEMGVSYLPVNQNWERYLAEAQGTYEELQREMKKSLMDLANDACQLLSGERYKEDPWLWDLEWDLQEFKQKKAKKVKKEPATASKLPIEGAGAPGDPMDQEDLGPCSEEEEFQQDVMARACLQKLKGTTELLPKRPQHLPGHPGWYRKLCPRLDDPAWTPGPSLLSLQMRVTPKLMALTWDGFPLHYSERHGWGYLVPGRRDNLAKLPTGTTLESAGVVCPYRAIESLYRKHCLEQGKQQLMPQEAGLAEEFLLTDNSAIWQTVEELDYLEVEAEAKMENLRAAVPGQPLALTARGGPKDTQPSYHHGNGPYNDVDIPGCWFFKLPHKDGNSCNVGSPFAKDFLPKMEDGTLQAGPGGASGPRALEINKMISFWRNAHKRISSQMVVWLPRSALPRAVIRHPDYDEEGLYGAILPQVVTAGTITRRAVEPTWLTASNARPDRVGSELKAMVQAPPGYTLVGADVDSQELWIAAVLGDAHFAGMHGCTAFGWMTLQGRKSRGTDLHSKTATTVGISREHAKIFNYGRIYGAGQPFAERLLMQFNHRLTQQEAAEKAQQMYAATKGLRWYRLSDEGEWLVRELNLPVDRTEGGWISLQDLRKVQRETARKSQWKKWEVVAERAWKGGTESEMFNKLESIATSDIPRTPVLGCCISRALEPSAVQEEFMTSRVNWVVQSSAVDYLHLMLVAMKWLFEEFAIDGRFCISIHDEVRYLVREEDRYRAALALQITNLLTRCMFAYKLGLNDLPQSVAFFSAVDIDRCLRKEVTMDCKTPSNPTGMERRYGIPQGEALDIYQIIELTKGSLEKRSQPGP
From the text: as §1

[4] = system: HIV-1 BH10 wild-type virus; experiment: microbe, parasite or virus in culture; assay type: cell-based; conditions: Human immunodeficiency virus 1, MT4, read-out: EC50, BH10, Example 16 comparative tables; unit inferred; several lines per compound
[5] = system: HIV-1 BH10 K103N mutant virus; experiment: microbe, parasite or virus in culture; assay type: cell-based; conditions: Human immunodeficiency virus 1, MT4, read-out: EC50, K103N, Example 16 comparative tables; unit inferred
[6] = system: HIV-1 BH10 wild-type virus; experiment: CPE / cell protection assay, MT-4 cells, BH10 wild-type; assay type: cell-based; conditions: Human immunodeficiency virus 1, MT4; Cell Protection Assay tables; unit inferred; read-out: EC50, BH10
Protocol: (§2) The activity of the compounds was also assessed with the same virus and cell type using a different assay readout based on cytopathic effect (CPE).
(§3) MT-4 cells (Source: NIH Catalog #120) were seeded onto 96-well cell culture plates (1×10^4 cells per well in 50 μL).
(§4) The final DMSO concentration in the assay was 0.5% in 120 μL. Cell cultures were then incubated at 37° C./5% CO2 for 4 days. Then, Cell Titer 96 AQueous One Solution Cell Proliferation Assay (Promega) was used to measure cell viability. Briefly, the One Solution Reagent was added directly to culture wells (20 μL/well), incubated for 5 hours, and the absorbance was recorded at 492 nm using the Sunrise Tecan Spectrophotometer.
(§5) The EC50 values were determined from the percent inhibition versus concentration data using a sigmoidal non-linear regression analysis based on four parameters with Tecan Magellan software.

CYP3A4 = CYP3A4 (Homo sapiens, UniProt P08684); experiment: Recombinant CYP450 inhibition, fluorometric, CYP3A4; assay type: in vitro ADME; set-up: from tissue; host or cells: pooled human liver microsomes
Chain of CYP3A4 (P08684 whole entry, the tested form may be a part): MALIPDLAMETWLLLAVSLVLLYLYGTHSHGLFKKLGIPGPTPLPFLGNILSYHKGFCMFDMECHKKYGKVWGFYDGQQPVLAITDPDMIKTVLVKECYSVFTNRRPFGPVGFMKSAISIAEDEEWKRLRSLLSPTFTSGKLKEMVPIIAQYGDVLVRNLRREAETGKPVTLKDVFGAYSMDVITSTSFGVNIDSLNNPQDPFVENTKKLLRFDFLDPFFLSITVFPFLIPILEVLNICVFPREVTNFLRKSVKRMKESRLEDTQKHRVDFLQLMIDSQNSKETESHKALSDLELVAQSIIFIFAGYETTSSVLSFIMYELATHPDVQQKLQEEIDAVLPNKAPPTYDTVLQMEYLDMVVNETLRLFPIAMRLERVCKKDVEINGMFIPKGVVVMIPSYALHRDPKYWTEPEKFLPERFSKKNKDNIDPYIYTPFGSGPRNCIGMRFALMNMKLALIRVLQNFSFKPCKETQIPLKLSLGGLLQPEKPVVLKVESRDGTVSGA
Protocol: (§6) Compounds were assayed using recombinant human microsomal proteins with fluorometric substrates. Signal was measured with a Fusion plate reader utilizing the appropriate excitation and emission wavelength set to detect the specific metabolite: […]

[7] = system: HIV-1 BH10 K103N mutant virus; experiment: microbe, parasite or virus in culture; assay type: cell-based; conditions: Human immunodeficiency virus 1, MT4, read-out: EC50, K103N
Protocol: as §2, §3, §4, §5

CYP2D6 = CYP2D6 (Homo sapiens, UniProt P10635); experiment: Recombinant CYP450 inhibition, fluorometric, CYP2D6; assay type: in vitro ADME; set-up: from tissue; host or cells: pooled human liver microsomes; conditions: recombinant human CYP2D6 microsomal protein, read-out: percentage of inhibition at the highest concentration tested, CYP2D6
Chain of CYP2D6 (P10635 whole entry): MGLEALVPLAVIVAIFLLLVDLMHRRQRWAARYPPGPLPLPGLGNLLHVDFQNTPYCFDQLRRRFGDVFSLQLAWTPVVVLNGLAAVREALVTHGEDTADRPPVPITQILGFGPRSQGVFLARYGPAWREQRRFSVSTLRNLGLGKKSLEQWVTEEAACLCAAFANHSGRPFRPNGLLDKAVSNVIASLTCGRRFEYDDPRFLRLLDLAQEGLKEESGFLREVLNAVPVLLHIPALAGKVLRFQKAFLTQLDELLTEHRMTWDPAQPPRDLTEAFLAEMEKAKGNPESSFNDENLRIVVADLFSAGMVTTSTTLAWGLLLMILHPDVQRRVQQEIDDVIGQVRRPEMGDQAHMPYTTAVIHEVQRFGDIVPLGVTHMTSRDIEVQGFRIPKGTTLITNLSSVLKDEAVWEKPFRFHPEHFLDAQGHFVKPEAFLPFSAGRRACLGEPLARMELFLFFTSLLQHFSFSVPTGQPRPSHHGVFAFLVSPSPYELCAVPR
Protocol: as §6

[8] = system: CYP3A4 (activation of PXR in DPX2 cells); experiment: CYP3A4 induction screen in DPX2 cells; assay type: cell-based, human; conditions: extent compared with rifampicine, mifepristone, androstanol
From the text: The potential for in vitro induction of CYP3A4 was screened in DPX2 cells. The DPX2 cell line is a derivative of a human hepatocellular carcinoma cell line (HepG2) transformed with the human pregnane x receptor (PXR) and a reporter gene vector containing the enhancer region of CYP3A4. The potential for in vitro induction of CYP1A2 was screened in CYP1A2-DRE cells. The CYP1A2-DRE cell line is a stably transformed HepG2 cells with dioxin response elements (DRE) and reporter gene containing CYP1A2 promoter elements. The extent of CYP3A4 induction was determined by comparing the activation of PXR obtained with test article to that obtained with rifampicine (potent inducer), mifepristone (moderate inducer) and androstanol (weak inducer). The extent of CYP1A2 induction was determined by comparing the activation of the aryl hydrocarbon receptor (AhR) obtained with test article to that obtained with TCDD (potent inducer), omeprazole (moderate inducer), and 2-acetylaminofluorene (weak inducer).

CYP2C9 = CYP2C9 (Homo sapiens, UniProt P11712); experiment: Recombinant CYP450 inhibition, Luciferin-H, CYP2C9; assay type: in vitro ADME; set-up: from tissue; host or cells: pooled human liver microsomes; conditions: highest concentration tested 10 μM
Chain of CYP2C9 (P11712 whole entry, the tested form may be a part): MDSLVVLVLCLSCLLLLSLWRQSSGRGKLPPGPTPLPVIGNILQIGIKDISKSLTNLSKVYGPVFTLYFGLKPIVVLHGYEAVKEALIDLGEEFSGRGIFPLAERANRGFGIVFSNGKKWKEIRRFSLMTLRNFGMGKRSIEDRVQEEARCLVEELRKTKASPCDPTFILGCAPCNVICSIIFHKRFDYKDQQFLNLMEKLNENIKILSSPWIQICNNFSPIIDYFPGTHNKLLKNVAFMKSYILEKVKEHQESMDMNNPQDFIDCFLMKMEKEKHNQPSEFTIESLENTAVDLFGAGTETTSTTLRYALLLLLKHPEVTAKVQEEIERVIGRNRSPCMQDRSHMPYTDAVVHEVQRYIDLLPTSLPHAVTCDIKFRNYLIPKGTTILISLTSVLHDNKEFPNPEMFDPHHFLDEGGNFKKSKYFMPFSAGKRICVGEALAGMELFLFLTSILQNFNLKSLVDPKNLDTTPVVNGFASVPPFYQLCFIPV
Protocol: CYP2C9 inhibition was performed by incubating a luminogenic CYP450 substrate Luciferin-H with CYP2C9 and an NADPH regeneration system. Luminescence measured using a Fusion plate reader.

[9] = Table 6, N=4, read-out: Mean IC50 Values ± Standard Deviation, DNA Pol Gamma

EC50 (HIV-2 ROD): 162 ± 76.7 nM
Compound: Cc1cn([C@H]2C[C@H](N=[N+]=[N-])[C@@H](CO)O2)c(=O)[nH]c1=O [AZT, zidovudine, reference compound]

Compound: Cc1c2oc3c(C)ccc(C(=O)N[C@@H]4C(=O)N[C@H](C(C)C)C(=O)N5CCC[C@H]5C(=O)N(C)CC(=O)N(C)[C@@H](C(C)C)C(=O)O[C@@H]4C)c3nc-2c(C(=O)N[C@@H]2C(=O)N[C@H](C(C)C)C(=O)N3CCC[C@H]3C(=O)N(C)CC(=O)N(C)[C@@H](C(C)C)C(=O)O[C@@H]2C)c(N)c1=O [Act. D, actinomycin D, reference compound] (I: T[dV]P[Sar][NMeV] / II: T[dV]P[Sar][NMeV]; ester I:1-I:C, II:1-II:C; linker I:N-II:N via Actinocin(9to1))
IC50 ([1]; Table 5, read-out: Average IC50 Values ± Standard Deviation, DNA Pol Alpha): 16100 ± 11200 nM
IC50 ([1]; Table 6, N=4, read-out: Mean IC50 Values ± Standard Deviation, DNA Pol Alpha): 16100 ± 11200 nM
IC50 ([2]; Table 5, read-out: Average IC50 Values ± Standard Deviation, DNA Pol Beta): 23000 ± 10400 nM
IC50 ([2]; Table 6, N=4, read-out: Mean IC50 Values ± Standard Deviation, DNA Pol Beta): 23000 ± 10400 nM
IC50 ([3]; Table 5, preliminary data from a single experiment, read-out: Average IC50 Values, DNA Pol Gamma): 16900 nM
IC50 [3, 9]: 11800 ± 1900 nM

Compound: CO[P@@](=O)(c1cc(C)cc(/C=C/C#N)c1)c1c(C(N)=O)[nH]c2ccc(Cl)c(F)c12 [Compound II, (2-Carbamoyl-5-chloro-4-fluoro-1H-indol-3-yl)-[3-((E)-2-cyano-vinyl)-5-methyl-phenyl]-(S)-phosphinic acid methyl ester]
EC50 [4]: 192 nM
EC50 [5]: 920 nM
EC50 [6]: 62 ± 19 nM
IC50 (CYP3A4): 3210 nM
EC50 [7]: 277 ± 99 nM

Compound: CO[P@@](=O)(c1cc(C)cc(/C=C/C#N)c1)c1c(C(N)=O)[nH]c2ccc(Cl)cc12 [IV, (2-carbamoyl-5-chloro-1H-indol-3-yl)-[3-((E)-2-cyano-vinyl)-5-methyl-phenyl]-(S)-phosphinic acid methyl ester]
inhibition at 10 µM (CYP2D6): 29.1%
Induction, DPX2 (CYP3A4) [8]: Moderate (n = 1)
EC50 [6]: 0.2 ± 0.1 nM
IC50 (CYP2C9): 3380 nM
IC50 (CYP3A4; recombinant, highest concentration tested 10 μM, read-out: IC50, CYP3A4): 2960 nM
EC50 [7]: 0.3 nM

Compound: dideoxycytidine triphosphate [ddCTP, reference compound]
IC50 [3, 9]: 1500 ± 600 nM
